# Like-named read-outs stand apart in the source and are kept apart here.
# What was measured:
# BTK = biological target: T1, BTK (Homo sapiens, UniProt Q06187); test: Inhibitory activity against BTK, ADP-Glo Kinase system (Promega); type: biochemical
# T1 construct: purchased Signalchem B10-10H
# Method: (§1) Inhibitory activities against BTK and ITK were measured for the compounds prepared in the above Examples as follows.
# (§2) The inhibitory activities against BTK and ITK were evaluated using 'ADP-Glo™ Kinase system' (Promega Corporation). In the case of this evaluation method, activation was measured by quantifying the amount of ADP produced during the kinase reaction, which was utilized to measure the inhibitory activities against BTK and ITK.
# (§3) Specifically, the inhibitory activities against BTK and ITK were measured using BTK kinase (Signalchem, B10-10H), ITK kinase (Signalchem, I13-11G-10), and ADP-Glo kinase assay kit (Promega, V9102). Recombinant purified human BTK and ITK were diluted with 1 x kinase reaction buffer (40 mM Tris-Cl, pH 7.5, 20 mM MgCl2, 0.1 mg/mL BSA, 2 mM MnCl2 and 50 uM DTT) and added to a 96 well plate (ITK: final concentration of 4 ng per reaction/BTK: final concentration of 10 ng per reaction). The compounds prepared in the previous Examples were treated so as to be finally a 1% DMSO aqueous solution, and a substrate cocktail containing ATP (1mM or Km ATP (BTK: 10 uM /ITK: 25uM)) and 0.2 ug/ul of Poly (Glu4,Tyr1) peptide (BTK and ITK final concentration) in the total 25 uL reactants was added to a 96-well plate to initiate enzymatic reaction. After incubation (30°C) for 1 hour, equivalent volume (25 uL per reaction) of ADP Glo was added, and incubated (30°C) for 40 minutes at room temperature. Then, a kinase detection reagent (45 uL per reaction) was added, and incubated (30°C) for 30 minutes at room temperature. The kinase activity was measured by chemiluminescence according to the instructions of ADP Glo kinase assay kit, and the inhibitory activity of the compounds according to the present disclosure was calculated. For the analysis of the results of each compound, Microsoft Excel was used, and IC50 values were calculated by GraphPad Prism software.
# ITK = biological target: T2, ITK (Homo sapiens, UniProt Q08881); test: Inhibitory activity against ITK, ADP-Glo Kinase system (Promega); type: biochemical
# T2 construct: purchased Signalchem I13-11G-10
# T2 sequence (Q08881 1-620): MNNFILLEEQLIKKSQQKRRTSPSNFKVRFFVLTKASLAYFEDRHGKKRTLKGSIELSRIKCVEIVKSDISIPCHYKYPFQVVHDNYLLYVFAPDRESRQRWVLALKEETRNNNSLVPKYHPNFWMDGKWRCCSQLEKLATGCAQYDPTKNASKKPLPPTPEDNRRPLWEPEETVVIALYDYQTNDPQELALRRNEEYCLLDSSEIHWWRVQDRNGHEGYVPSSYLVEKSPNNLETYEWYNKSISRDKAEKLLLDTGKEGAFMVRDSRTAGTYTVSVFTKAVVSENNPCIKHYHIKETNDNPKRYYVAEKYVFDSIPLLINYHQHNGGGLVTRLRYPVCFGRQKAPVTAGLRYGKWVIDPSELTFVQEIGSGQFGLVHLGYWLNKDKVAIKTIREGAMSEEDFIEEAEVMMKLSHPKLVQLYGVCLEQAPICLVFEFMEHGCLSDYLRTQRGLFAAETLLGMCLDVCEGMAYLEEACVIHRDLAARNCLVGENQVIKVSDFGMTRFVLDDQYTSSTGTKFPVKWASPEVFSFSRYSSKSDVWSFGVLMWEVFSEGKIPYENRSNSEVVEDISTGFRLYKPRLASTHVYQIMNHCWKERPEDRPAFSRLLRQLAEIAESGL
# Method: as §1, §2, §3
# [1] = 1mM ATP, read-out: BTK IC50(nM) 1mM ATP
# [2] = 1mM ATP, read-out: ITK IC50(nM) 1mM ATP
# [3] = Km ATP (BTK: 10 uM), read-out: BTK IC50(nM) Km ATP
# [4] = Km ATP (ITK: 25uM), read-out: ITK IC50(nM) Km ATP
# T1 sequence (Q06187 whole entry): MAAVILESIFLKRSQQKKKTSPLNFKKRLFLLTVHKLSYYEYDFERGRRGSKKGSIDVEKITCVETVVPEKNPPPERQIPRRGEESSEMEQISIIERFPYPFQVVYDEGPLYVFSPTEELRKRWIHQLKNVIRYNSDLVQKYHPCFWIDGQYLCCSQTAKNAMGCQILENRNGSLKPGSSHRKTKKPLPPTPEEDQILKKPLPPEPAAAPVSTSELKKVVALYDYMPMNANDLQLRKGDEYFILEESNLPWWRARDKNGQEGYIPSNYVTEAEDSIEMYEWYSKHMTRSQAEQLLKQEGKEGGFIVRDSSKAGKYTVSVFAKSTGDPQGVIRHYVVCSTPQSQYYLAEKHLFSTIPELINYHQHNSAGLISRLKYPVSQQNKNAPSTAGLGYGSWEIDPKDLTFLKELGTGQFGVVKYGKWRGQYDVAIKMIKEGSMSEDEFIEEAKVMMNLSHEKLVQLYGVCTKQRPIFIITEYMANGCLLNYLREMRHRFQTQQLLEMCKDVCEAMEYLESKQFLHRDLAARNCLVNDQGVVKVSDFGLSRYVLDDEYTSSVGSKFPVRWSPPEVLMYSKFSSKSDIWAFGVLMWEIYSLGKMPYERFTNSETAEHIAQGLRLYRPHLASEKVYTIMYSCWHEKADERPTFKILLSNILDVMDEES
SMILES,IC50 (BTK; [1]) [nM],IC50 (ITK; [2]) [nM],IC50 (BTK; [3]) [nM],IC50 (ITK; [4]) [nM]
"C=CC(=O)N1C[C@@H](C)[C@H](Oc2nc(Nc3ncc(C)s3)cc3c2ccn3C(C)C)C1 (racemic) [Example 92, rac-1-((3S,4R)-3-((1-isopropyl-6-((5-methylthiazol-2-yl)amino)-1H-pyrrolo[3,2-c]pyridin-4-yl)oxy)-4-methylpyrrolidin-1-yl)prop-2-en-1-one]",≤ 20,≤ 20,,
"C=CC(=O)N1CC[C@@H](Oc2nc(Nc3ncc(C)s3)cc3c2ccn3CC(C)C)C1 (stereo in doubt) [Example 82, (R)-1-(3-((1-isobutyl-6-((5-methylthiazol-2-yl)amino)-1H-pyrrolo[3,2-c]pyridin-4-yl)oxy)pyrrolidin-1-yl)prop-2-en-1-one]",> 500,> 500,,
"C=CC(=O)N1CC[C@H](Oc2nc(Nc3ncc(C)s3)cc3c2ccn3CC2(C(F)(F)F)CC2)C1 (stereo in doubt) [Example 102, (S)-1-(3-((6-((5-methylthiazol-2-yl)amino)-1-((1-(trifluoromethyl)cyclopropyl)methyl)-1H-pyrrolo[3,2-c]pyridin-4-yl)oxy)pyrrolidin-1-yl)prop-2-en-1-one]",≤ 20,≤ 20,,
"C=CC(=O)N1CC=C(c2nc(Nc3ncc(C)s3)cc3c2ccn3C)CC1 [Example 1, 1-(4-(1-methyl-6-((5-methylthiazol-2-yl)amino)-1H-pyrrolo[3,2-c]pyridin-4-yl)-3,6-dihydropyridin-1(2H)-yl)prop-2-en-1-one]",,,≤ 20,≤ 20
"C=CC(=O)N1CC=C(c2nc(Nc3ncc(C)s3)cc3c2ccn3C(C)C)CC1 [Example 2, 1-(4-(1-isopropyl-6-((5-methylthiazol-2-yl)amino)-1H-pyrrolo[3,2-c]pyridin-4-yl)-3,6-dihydropyridin-1(2H)-yl)prop-2-en-1-one]",20 to 100,20 to 100,≤ 20,≤ 20
"C=CC(=O)N1CC=C(c2nc(Nc3ncc(C)s3)cc3c2ccn3C)C1 [Example 3, 1-(3-(1-methyl-6-((5-methylthiazol-2-yl)amino)-1H-pyrrolo[3,2-c]pyridin-4-yl)-2,5-dihydro-1H-pyrrol-1-yl)prop-2-en-1-one]",,,100 to 500,100 to 500
"C=CC(=O)N1CC=C(c2nc(Nc3ncc(C)s3)cc3c2ccn3CC2CC2)CC1 [Example 4, 1-(4-(1-(cyclopropylmethyl)-6-((5-methylthiazol-2-yl)amino)-1H-pyrrolo[3,2-c]pyridin-4-yl)-3,6-dihydropyridin-1(2H)-yl)prop-2-en-1-one]",20 to 100,20 to 100,≤ 20,≤ 20
"C=CC(=O)N1CC=C(c2nc(Nc3ncc(C)s3)cc3c2ccn3C2CCCC2)CC1 [Example 5, 1-(4-(1-cyclopentyl-6-((5-methylthiazol-2-yl)amino)-1H-pyrrolo[3,2-c]pyridin-4-yl)-3,6-dihydropyridin-1(2H)-yl)prop-2-en-1-one]",,,≤ 20,≤ 20
"C=CC(=O)N1CC=C(c2nc(Nc3ncc(C)s3)cc3c2ccn3CC(C)C)CC1 [Example 6, 1-(4-(1-isobutyl-6-((5-methylthiazol-2-yl)amino)-1H-pyrrolo[3,2-c]pyridin-4-yl)-3,6-dihydropyridin-1(2H)-yl)prop-2-en-1-one]",20 to 100,100 to 500,≤ 20,≤ 20
"C=CC(=O)N1CC=C(c2nc(Nc3ncc(C)s3)cc3c2ccn3CC2CCC2)CC1 [Example 7, 1-(4-(1-(cyclobutylmethyl)-6-((5-methylthiazol-2-yl)amino)-1H-pyrrolo[3,2-c]pyridin-4-yl)-3,6-dihydropyridin-1(2H)-yl)prop-2-en-1-one]",,,≤ 20,≤ 20
"C=CC(=O)N1CC=C(c2nc(Nc3ncc(C)s3)cc3c2ccn3CC2CCOC2)CC1 (centres unmarked) [Example 8, 1-(4-(6-((5-methylthiazol-2-yl)amino)-1-((tetrahydrofuran-3-yl)methyl)-1H-pyrrolo[3,2-c]pyridin-4-yl)-3,6-dihydropyridin-1(2H)-yl)prop-2-en-1-one]",,,≤ 20,≤ 20
"C=CC(=O)N1CC=C(c2nc(Nc3ncc(C)s3)cc3c2ccn3CC2CCCCC2)CC1 [Example 9, 1-(4-(1-(cyclohexylmethyl)-6-((5-methylthiazol-2-yl)amino)-1H-pyrrolo[3,2-c]pyridin-4-yl)-3,6-dihydropyridin-1(2H)-yl)prop-2-en-1-one]",,,≤ 20,≤ 20
"C=CC(=O)N1CC=C(c2nc(Nc3ncc(C)s3)cc3c2ccn3CC2CCCC2)CC1 [Example 10, 1-(4-(1-(cyclopentylmethyl)-6-((5-methylthiazol-2-yl)amino)-1H-pyrrolo[3,2-c]pyridin-4-yl)-3,6-dihydropyridin-1(2H)-yl)prop-2-en-1-one]",,,≤ 20,20 to 100
"C=CC(=O)N1CC=C(c2nc(Nc3ncc(C)s3)cc3c2ccn3CC2CCC(F)(F)CC2)CC1 [Example 11, 1-(4-(1-((4,4-difluorocyclohexyl)methyl)-6-((5-methylthiazol-2-yl)amino)-1H-pyrrolo[3,2-c]pyridin-4-yl)-3,6-dihydropyridin-1(2H)-yl)prop-2-en-1-one]",,,≤ 20,≤ 20
"C=CC(=O)N1CC=C(c2nc(Nc3ncc(C)s3)cc3c2ccn3CC(F)F)CC1 [Example 12, 1-(4-(1-(2,2-difluoroethyl)-6-((5-methylthiazol-2-yl)amino)-1H-pyrrolo[3,2-c]pyridin-4-yl)-3,6-dihydropyridin-1(2H)-yl)prop-2-en-1-one]",≤ 20,≤ 20,≤ 20,≤ 20
"C=CC(=O)N1CC=C(c2nc(Nc3ncc(C)s3)cc3c2ccn3[C@@H](C)CC)CC1 [Example 13, (S)-1-(4-(1-(sec-butyl)-6-((5-methylthiazol-2-yl)amino)-1H-pyrrolo[3,2-c]pyridin-4-yl)-3,6-dihydropyridin-1(2H)-yl)prop-2-en-1-one]",,,≤ 20,≤ 20
"C=CC(=O)N1CC=C(c2nc(Nc3ncc(C)s3)cc3c2ccn3[C@H](C)CC)CC1 [Example 14, (R)-1-(4-(1-(sec-butyl)-6-((5-methylthiazol-2-yl)amino)-1H-pyrrolo[3,2-c]pyridin-4-yl)-3,6-dihydropyridin-1(2H)-yl)prop-2-en-1-one]",,,≤ 20,≤ 20
"C=CC(=O)N1CC=C(c2nc(Nc3ncc(C)s3)cc3c2ccn3Cc2ccccc2)CC1 [Example 15, 1-(4-(1-benzyl-6-((5-methylthiazol-2-yl)amino)-1H-pyrrolo[3,2-c]pyridin-4-yl)-3,6-dihydropyridin-1(2H)-yl)prop-2-en-1-one]",,,≤ 20,≤ 20
"C=CC(=O)N1CC=C(c2nc(Nc3ncc(C)s3)cc3c2ccn3CCc2ccccc2)CC1 [Example 16, 1-(4-(6-((5-methylthiazol-2-yl)amino)-1-phenethyl-1H-pyrrolo[3,2-c]pyridin-4-yl)-3,6-dihydropyridin-1(2H)-yl)prop-2-en-1-one]",,,≤ 20,≤ 20
"C=CC(=O)N1CC=C(c2nc(Nc3ncc(C)s3)cc3c2ccn3CC2(C(F)(F)F)CC2)CC1 [Example 17, 1-(4-(6-((5-methylthiazol-2-yl)amino)-1-((1-(trifluoromethyl)cyclopropyl)methyl)-1H-pyrrolo[3,2-c]pyridin-4-yl)-3,6-dihydropyridin-1(2H)-yl)prop-2-en-1-one]",,,≤ 20,≤ 20
"C=CC(=O)N1CC=C(c2nc(Nc3ncc(C)s3)cc3c2ccn3CCC(C)(C)C)CC1 [Example 18, 1-(4-(1-(3,3-dimethylbutyl)-6-((5-methylthiazol-2-yl)amino)-1H-pyrrolo[3,2-c]pyridin-4-yl)-3,6-dihydropyridin-1(2H)-yl)prop-2-en-1-one]",,,20 to 100,≤ 20
